Test results from patent US20250163388A1, “METHODS FOR DERIVATION AND PROPAGATION OF AVIAN PLURIPOTENT STEM CELLS AND APPLICATIONS THEREOF” (UNIVERSITY OF SOUTHERN CALIFORNIA, priority 2022, published 2025).
Read-outs that look alike come from different tables or passages of the source.

How the values were obtained:
Type in all cases: cell-based
[1] = tested on: chicken blastodermal cells / chicken ESCs; assay: Derivation and self-renewal culture of chicken ESCs from EGK.X blastodermal cells; details: for emergence of morphologically undifferentiated ESC colonies: EGK.X blastodermal cells from Rhode Island Red eggs, single supplement, FIG. 8A
Method: (§1) Freshly laid avian fertile eggs at EGK.X-XII stages were kept at 16° C. before extraction. To harvest cells from yolk, a filter paper-based method was applied. Filter paper with a hole at center was placed on top of the embryo. The outer edge of the filter paper was cut together with the vitelline membranes. Embryo were then released from yolk together with the filter paper and washed in PBS solution. Next, embryo was transferred into a 15 ml tube free of the paper ring and dissociated by pipetting inside N2B27 medium. Dissociated cells were cultured in tissue plates coated with irradiated mouse embryonic fibroblast (MEF) cells as feeder layer. Basal medium used for routine ESC maintenance was N2B27 medium composed of Dulbecco's Modified Eagle Medium/Nutrient Mixture F-12 (DMEM/F12):Neuralbasal (1:1) plus 0.5×N2, 0.5×B27 supplement and 20 μg/ml ovotransferrin with the addition of 1× penicillin-streptomycin. Avian ESC self-renewal was kept with 2.5 μM IWR-1, 2 μM Gö6983, 2 μM SB431542 plus chicken LIF (10 ng/ml for ESCs and 40 ng/ml for other avian ESCs). ESCs were cultured at 38° C. in 5% CO2 with daily medium change. To passage, TrypLE was used to incubate the cells for 5 min and neutralized with basal medium in triple amount. Cells were handled with 5 ml pipette all the time to avoid dissociation into singles. Cells can be frozen in Cellbanker 2 and stored at −150° C.

avian ESCs [2] = assay: Self-renewal of avian ESCs (species not specified)
Method: as §1

[3] = tested on: quail blastodermal cells / quail ESCs; assay: Derivation and self-renewal culture of quail ESCs
Method: We tested whether ESCs could be derived from other avian species in OT/2i. We isolated blastodermal cells from fertilized pheasant, duck and turkey eggs and cultured them in OT/2i. […] We examined whether blocking signaling pathways involved in cardiomyocyte differentiation from pluripotent stem cells could improve ESC self-renewal.
as §1, with “ESCs were cultured at 38° C. in 5% CO2 with daily medium change. To passage, TrypLE was used to incubate the cells for 5 min and neutralized with basal medium in triple amount. Cells were handled with 5 ml pipette all the time to avoid dissociation into singles. Cells can be frozen in Cellbanker 2 and stored at −150° C.” left out

avian ESCs [4] = assay: Induction of primordial germ cells (PGCs) from avian ESCs; details: data not shown
Description: Next, we assessed the potential of chicken ESCs to differentiate into the germ cell lineage. We generated EBs from chicken ESCs and examined the expression of germ cell markers including Dazl, Cvh, Cxcr4, Sycp3 and Stra8. […] To further investigate germ cell differentiation potential of chicken ESCs, we examined the expression of key primordial germ cell (PGC) marker, DAZL by immunofluorescence staining in both undifferentiated chicken ESCs and differentiated EBs. […] A subset of cells (1-3%) in day 3-4 EBs stained positive for DAZL (FIG. 6C). DAZL expression could also be detected inside goose ESC-derived EBs (FIG. 6C).

ostrich ESCs = assay: Derivation and self-renewal culture of ostrich ESCs
Method: as §1

## COc1ccc2c(c1)c(C1=C(c3c[nH]c4ccccc34)C(=O)NC1=O)cn2CCCN(C)C [Gö6983]
[1]
  emergence of morphologically undifferentiated ESC colonies: Morphologically undifferentiated ESC colonies emerged

## O=C(Nc1cccc2cccnc12)c1ccc(N2C(=O)[C@@H]3[C@H](C2=O)[C@@H]2C=C[C@H]3C2)cc1 [IWR-1]
[1]
  emergence of morphologically undifferentiated ESC colonies: Morphologically undifferentiated ESC colonies emerged

## NC(=O)c1ccc(-c2nc(-c3ccc4c(c3)OCO4)c(-c3ccccn3)[nH]2)cc1 [SB431542, 4-[4-(2H-1,3-Benzodioxol-5-yl)-5-(pyridin-2-yl)-1H-imidazol-2-yl]benzamide]
[1]
  chicken ESC self-renewal: stabilize and proliferate chicken ESCs in long-term passages
Avian ESCs [2]
  self-renewal of avian ESCs: does not promote the self-renewal

## human LIF: human leukemia inhibitory factor
[3]
  quail ESC derivation and long-term self-renewal: cannot be substituted

## human ortholog: human ortholog of ovotransferrin
[1]
  chicken ESC self-renewal: could not be replaced

B1: BMP4: a TGF-β superfamily ligand (protein, UniProt P12644 293-408, looked up)
Bone morphogenetic protein 4: SPKHHSQRARKKNKNCRRHSLYVDFSDVGWNDWIVAPPGYQAFYCHGDCPFPLADHLNSTNHAIVQTLVNSVNSSIPKACCVPTELSAISMLYLDEYDKVVLKNYQEMVVEGCGCR
Avian ESCs [4]
  induction of PGCs: did not respond

B2: chicken LIF: chicken leukemia inhibitory factor, SEQ ID NO: 2; yeast-derived recombinant (protein, listed as Gallus gallus)
chain: MRLIPAGVVPFVALLLLQRRPVSGRALLGTSSACPTNGLCRANVLEQTRRQVALLNATAQDLFSLYLKCQGEPFSSESDRLCSPSGIFFPPFHVNRTTERKEVMVAMYKLFAFLNASLGNITRDQEELNPMAKELLNRLHNTTKTTRGLISNLTCLLCKHYNIFQVDVSYGESSKDKSAFKKKQQGCQVLRKYVQVIAQAARVLLPHLSPA
[3]
  quail ESC derivation and long-term self-renewal: is necessary
[1]
  chicken ESC self-renewal: stabilize and proliferate chicken ESCs in long-term passages
Ostrich ESCs
  ostrich ESC derivation, maintenance and differentiation: induced differentiation
Ostrich ESCs; listed as LIF
  ostrich ESC derivation, maintenance and differentiation: differentiating effect
